SMILES strings stand for the structures.

Test [1] relates to Guinea pigs. Nature of the test: Cystometry test on guinea pigs (spinal cord cut), effective bladder capacity. The test is classed as in vivo. To be noted: guinea pig. The text has this: (2) Cystometry Test on Guinea Pigs
The method used was according to the method proposed by J S. Peterson et al. (Peterson J S. et al., J. Pharmacol. Methods 21(1989): 231), to which minor modifications were made.
Guinea pigs were anesthetized with halothane and the tenth thoracic spinal cord was cut in each animal. Subsequently, both ureters were ligated and were cut on the kidney-side. Polyethylene catheters were inserted into the bladder to provide an injection pathway for physiological saline and a pathway for the measurement of intravesical pressure. Each animal was restricted in a Ballman cage and was left for more than 2 hours. Subsequently, room-temperature saline was injected through the bladder catheter into the bladder at a rate of 6 mL/hr to conduct a cystometry test. Once the effective bladder capacity was stabilized, a test compound was intravenously administered into the jugular vein. The effective bladder capacity is defined as the volume of saline injected from one urination to the next. The effect of each test compound was determined as the increase in the average bladder volume, which was determined based on the average bladder volume measured 30 minutes prior to the administration of the test compound and the average bladder volume measured every 30 minutes after the administration of the test compound.

The target in test [2] is T1, NK1 receptor (Cavia porcellus, UniProt P30547).
T1 construct: from tissue; host or cells: isolated guinea pig ileum
T1 sequence (P30547 whole entry): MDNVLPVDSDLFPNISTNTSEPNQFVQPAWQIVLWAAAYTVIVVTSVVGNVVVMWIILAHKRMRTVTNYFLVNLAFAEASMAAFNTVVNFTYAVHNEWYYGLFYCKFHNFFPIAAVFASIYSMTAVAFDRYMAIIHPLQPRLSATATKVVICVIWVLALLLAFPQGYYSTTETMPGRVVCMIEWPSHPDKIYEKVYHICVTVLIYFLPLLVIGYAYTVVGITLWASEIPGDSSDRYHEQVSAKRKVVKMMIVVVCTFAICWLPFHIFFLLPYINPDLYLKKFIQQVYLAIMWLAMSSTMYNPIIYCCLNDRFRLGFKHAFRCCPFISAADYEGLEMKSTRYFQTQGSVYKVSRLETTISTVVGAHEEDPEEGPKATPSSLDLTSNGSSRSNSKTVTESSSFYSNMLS
Nature of the test: Test for NK1 receptor antagonist: substance P concentration-response in isolated guinea pig ileum, Schild analysis. To be noted: substance P-induced contraction, 10 min pretreatment, method of Schild. As for the experimental part:
(1) Test for NK1 Receptor Antagonist
The method used was according to the method proposed by S. Dion et al.(Dion et al., Life Sciences 41(1987): 2269), to which minor modifications were made.
Guinea pigs were stunned by a blow on the head and were exsanguinated from the carotid artery and ilea were isolated. The ileum was mounted in an organ bath containing Tyrode's solution which was maintained at 32° C. and gased with 95% O2 and 5% CO2. The ileum was subjected to a resting tension of 1-gram and allowed to equilibrate for 20 minutes before the experiment was started. As a control, a concentration-response curve for substance P in the absence of any of test compounds was used. The NK1 receptor antagonist activity of each test compound was determined by a concentration-response curve obtained by pretreating at least three concentrations of the test compound for 10 minutes and subsequently applying substance P in a cumulative manner. The Kb values were determined according to the method of Schild and the results are shown in Table 1 (Schild Brit. J. Pharmacol. 14(1959): 48).
The composition of the Tyrode's solution was as follows: NaCl=136.9, KCl=2.7, CaCl2·2H2O=2.5, MgCl2·6H2O=1.0, NaH2PO4·2H2O=0.4, NaHCO3=11.9, glucose=11.1 (mmol/L)

Turning to `CC(=O)N1CCN(c2nc3c(c(-c4ccccc4C)n2)C(=O)N(Cc2cc(C(F)(F)F)cc(C(F)(F)F)c2)CCCN3)CC1` [Compound of Example 4, 2-(4-acetylpiperazine-1-yl)-6-[3,5-bis(trifluoromethyl)benzyl]-5,6,7,8,9,10-hexahydro-4-(2-methylphenyl)-5-oxopyrimido[4,5-b][1,5]diazocine], in test [1] (dose 0.3 mg/kg i.v.), the “Increase in bladder capacity (%)” value was 43.0%. The Kb in test [2] worked out at 0.148 nM.
On to `CC(=O)N1CCN(c2nc(-c3ccccc3C)c3c(n2)N(C)CCCN(Cc2cc(C(F)(F)F)cc(C(F)(F)F)c2)C3=O)CC1` [Compound of Example 20], for which, in test [2], the Kb is 0.324 nM.
The same measure, in the same setting: in the case of `Cc1ccccc1-c1nc(N2CCOCC2)nc2c1C(=O)N(Cc1cc(C(F)(F)F)cc(C(F)(F)F)c1)CCCN2C` [Compound of Example 21, 6-[3,5-bis(trifluoromethyl)benzyl]-5,6,7,8,9,10-hexahydro-10-methyl-4-(2-methylphenyl)-2-(morpholine-4-yl)-5-oxopyrimido(4,5-b][1,5]diazocine] it was 0.42 nM; in that of `CC(=O)N1CCN(c2nc(-c3ccccc3C)c3c(n2)N(C(C)=O)CCCN(Cc2cc(C(F)(F)F)cc(C(F)(F)F)c2)C3=O)CC1` [Compound of Example 22, 10-acetyl-2-(4-acetylpiperazine-1-yl)-6-[3,5-bis(trifluoromethyl)benzyl]-5,6,7,8,9,10-hexahydro-4-(2-methylphenyl)-5-oxopyrimido[4,5-b][1,5]diazocine], 0.0794 nM.
Still for that read-out and setting: in the case of `COc1ccccc1-c1nc(N2CCS(=O)(=O)CC2)nc2c1C(=O)N(Cc1cc(C(F)(F)F)cc(C(F)(F)F)c1)CCCN2` [Compound of Example 28, 6-[3,5-bis(trifluoromethyl)benzyl]-2-(1,1-dioxothiomorpholine-4-yl)-5,6,7,8,9,10-hexahydro-4-(2-methoxyphenyl)-5-oxopyrimido[4,5-b][1,5]diazocine] it was 0.169 nM.
In the case of `Cc1ccc(-c2c3n(c(=O)c4ncccc24)CC[C@@H](C)CN(Cc2cc(C(F)(F)F)cc(C(F)(F)F)c2)C3=O)cc1` [TAK-637], the figures for the “Increase in bladder capacity (%)” value in test [1] (dose 0.3 mg/kg i.v.), in test [1] (dose 1 mg/kg i.v.) and in test [1] (dose 3 mg/kg i.v.) were 12.0%, 23.8% and 20.5%, respectively. In addition, the Kb in test [2] came to 0.269 nM.

As a reminder, the Kb is the affinity of an antagonist, worked out from how it opposes an agonist.

The record behind these values is patent US7064119B2, “Fused bicyclic pyrimidine derivatives” (Kyorin Pharmaceutical Co., Ltd., priority 2002, dated 2006).
